The subject of test [1] is hSR-transfected CHO-K1 cells. The experiment in a line: Antagonist cAMP response (coincubation with hSCT, HTRF-LANCE cAMP assay). The class given is cell-based, human. Conditions: Table 4; cAMP response with 5 nM hSCT plus analog 10^-12 to 10^-6 M, 30 min. As for the experimental part:
Detection was subsequently performed according to the manufacturer’s instructions.
(§1) All in vitro results were analyzed in quadruplicate, and the data are expressed as the means ± SEM. Significant differences were identified using Student’s t-test at p<0.05. The dose response was analyzed using GraphPad Prism 5.0 software with a variable slope (four parameters).

The subject of test [2] is hSR-transfected CHO-K1 cells. The test can be described thus: Agonist cAMP response (HTRF-LANCE cAMP assay). In kind it is cell-based, human. Conditions: for Agonistic response: Table 4, cAMP response at various doses. The procedure: The cAMP responses in hSR-transfected CHO-K1 cells were detected using the HTRF-LANCE® cAMP assay kit. After 48 h of transfection, the cells were detached by nonenzymatic treatment using Versene. The cells were counted and processed according to the manufacturer’s instructions to measure the cAMP response following cell treatment with the secretin analogs. hSCT was used as a positive control. The TRF signals (340 nm excitation/665 nm emission) were detected using a VICTOR X4 spectrofluorometer (PerkinElmer), and the cAMP concentration was determined using a standard curve.
as §1

Test [3] deals with human secretin receptor (human) (UniProt P47872). The test can be described thus: FRET or BRET; competitive binding, dose response 10^-12 M to 10^-4 M of unlabelled peptide against 500 nM labelled hSCT on CHO-K1 cells with Lumi4-Tb-labelled SNAPtag-hSR, 4–8°C, 1 h; nonspecific signal with 100 μM unlabelled hSCT subtracted; four-parameter fit.
human secretin receptor (human), sequence (P47872 23-440): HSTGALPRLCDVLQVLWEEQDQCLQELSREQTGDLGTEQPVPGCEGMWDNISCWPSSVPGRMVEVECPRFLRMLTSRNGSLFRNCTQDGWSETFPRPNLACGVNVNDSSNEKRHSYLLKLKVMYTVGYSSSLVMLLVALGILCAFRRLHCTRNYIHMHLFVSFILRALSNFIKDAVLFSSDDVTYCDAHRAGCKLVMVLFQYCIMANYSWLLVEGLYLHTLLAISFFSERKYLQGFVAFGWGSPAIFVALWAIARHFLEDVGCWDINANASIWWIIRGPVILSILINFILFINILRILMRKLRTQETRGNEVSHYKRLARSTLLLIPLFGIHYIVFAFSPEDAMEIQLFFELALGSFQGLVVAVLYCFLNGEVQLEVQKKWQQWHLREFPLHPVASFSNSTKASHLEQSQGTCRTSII
For test [4], the target named is SNAPtag-hSR (human secretin receptor) in transfected CHO-K1 cells (Homo sapiens, UniProt P47872). The test can be described thus: FRET competitive binding assay.
SNAPtag-hSR (human secretin receptor) in transfected CHO-K1 cells, sequence (P47872 23-440): as above

“Also recorded” adds a separate entry of the source.

On to `CC(C)C[C@H](NC(=O)CNC(=O)[C@H](CCC(N)=O)NC(=O)[C@H](CC(C)C)NC(=O)[C@H](CC(C)C)NC(=O)[C@H](CCCNC(=N)N)NC(=O)[C@H](CCC(N)=O)NC(=O)[C@H](CC(C)C)NC(=O)[C@H](CCCNC(=N)N)NC(=O)[C@H](C)NC(=O)[C@H](CO)NC(=O)[C@H](CC(=O)O)NC(=O)[C@H](CCC(N)=O)NC(=O)[C@H](CC(C)C)NC(=O)[C@H](CCCNC(=N)N)NC(=O)[C@H](CO)NC(=O)[C@H](CC(C)C)NC(=O)[C@H](CCC(=O)O)NC(=O)[C@H](CO)NC(=O)[C@@H](NC(=O)[C@H](Cc1ccccc1)NC(=O)[C@@H](NC(=O)CNC(=O)[C@H](CC(=O)O)NC(=O)[C@H](CO)NC(=O)[C@@H](N)Cc1c[nH]cn1)[C@@H](C)O)[C@@H](C)O)C(=O)N[C@H](C(=O)O)C(C)C` [Analog 15, Rat SCT], for which the Antagonistic response entry in test [1] was “Absent”. Further, in test [2], the “agonist activity at hSR, cAMP (in words)” value was “agonist” and the Agonistic response result is listed as “Present”. On to “H2N-His-Pro-Asp-Gly-Thr-Phe-Thr-Ser-Glu-Leu-Ser-Arg-Leu-Arg-Glu-Gly-Ala-Arg-Leu-Gln-Arg-Leu-Leu-Gln-Gly-Leu-Val- COOH [Analog 1, h[Pro^2]SCT]”, for which, in test [1], the Antagonistic response result is “Absent”. Besides, the Agonistic response entry in test [2] is “Absent”.

For “H2N-Cit-Ser-Asp-Gly-Thr-Phe-Thr-Ser-Glu-Leu-Ser-Arg-Leu-Arg-Glu-Gly-Ala-Arg-Leu-Gln-Arg-Leu-Leu-Gln-Gly-Leu-Val- COOH [Analog 10, h[Cit^1]SCT]”, the Antagonistic response entry in test [1] is “Absent”. Moreover, in test [2], the Agonistic response result is “Absent”. Regarding “H2N-Orn-Ser-Asp-Gly-Thr-Phe-Thr-Ser-Glu-Leu-Ser-Arg-Leu-Arg-Glu-Gly-Ala-Arg-Leu-Gln-Arg-Leu-Leu-Gln-Gly-Leu-Val- COOH [Analog 12, h[Orn^1]SCT]”, in test [1], the Antagonistic response result was “Absent”. Also, the Agonistic response entry in test [2] is given as “Absent”. In the case of “H2N-His-Ser-Asp-Gly-Leu-Phe-Thr-Ser-Glu-Tyr-Ser-Lys-Met-Arg-Gly-Asn-Ala-Gln-Val-Gln-Lys-Phe-Ile-Gln-Asn-Leu-Met- COOH [Analog 17, Chicken SCT]”, the Antagonistic response result in test [1] was “Absent”. For the same compound, the Agonistic response result in test [2] is “Absent”.

Turning to “H2N-His-Ser-pCO2HPhe-Gly-Thr-Phe-Thr-Ser-Glu-Leu-Ser-Arg-Leu-Arg-Glu-Gly-Ala-Arg-Leu-Gln-Arg-Leu-Leu-Gln-Gly-Leu-Val- COOH [Analog 11, h[pCO2H-Phe^3]SCT]”, in test [1], the Antagonistic response result is listed as “Absent”. For the same compound, the Agonistic response result in test [2] is “Absent”.

Take “H2N-His-Val-Asp-Gly-Leu-Phe-Thr-Ser-Glu-Leu-Ser-Lys-Leu-Arg-Gly-Ser-Ala-Val-Ala-Arg-Ser-Phe-Thr-Asn-Ala-Val-Leu- COOH [Analog 18, Coelacanths SCT]”: the Antagonistic response entry in test [1] is listed as “Absent”. For the same compound, the Agonistic response result in test [2] is “Absent”. As to “H2N-His-Ser-Asp-Tyr-Thr-Phe-Thr-Ser-Glu-Leu-Ser-Arg-Leu-Arg-Glu-Gly-Ala-Arg-Leu-Gln-Arg-Leu-Leu-Gln-Gly-Leu-Val- COOH [Analog 14, h[Tyr^4]SCT]”, in test [1], the Antagonistic response result is on record as “Absent”. Also, the Agonistic response result in test [2] is given as “Absent”.

As for “H2N-Arg-Glu-Gly-Ala-Arg-Leu-Gln-Arg-Leu-Leu-Gln-Gly-Leu-Val- COOH [Analog 20, Ct-SCT]”, the Antagonistic response entry in test [1] is “Absent”. Moreover, in test [2], the Agonistic response result is on record as “Absent”. With “H2N-His-Ser-Asp-Pro-Thr-Phe-Thr-Ser-Glu-Leu-Ser-Arg-Leu-Arg-Glu-Gly-Ala-Arg-Leu-Gln-Arg-Leu-Leu-Gln-Gly-Leu-Val- COOH [Analog 13, h[Pro^4]SCT]”, in test [1], the Antagonistic response result is given as “Absent”. Further, in test [2], the Agonistic response entry is given as “Absent”.

In the case of “H2N-His-Ser-Asp-Gly-Thr-Phe-Thr-Ser-Glu-Leu-Ser-Arg-Leu- COOH [Analog 19, Nt-SCT]”, the Antagonistic response entry in test [1] was “Absent”. Besides, the Agonistic response entry in test [2] is “Absent”. As for human secretin (peptide), the IC50 in test [3] was 1.63 nM. In other words, the single-digit nanomolar range. On to `CC(C)C[C@H](NC(=O)CNC(=O)[C@H](CCC(N)=O)NC(=O)[C@H](CC(C)C)NC(=O)[C@H](CC(C)C)NC(=O)[C@H](CCCNC(=N)N)NC(=O)[C@H](CCC(N)=O)NC(=O)[C@H](CC(C)C)NC(=O)[C@H](CCCNC(=N)N)NC(=O)[C@H](C)NC(=O)CNC(=O)[C@H](CCC(=O)O)NC(=O)[C@H](CCCNC(=N)N)NC(=O)[C@H](CC(C)C)NC(=O)[C@H](CCCNC(=N)N)NC(=O)[C@H](CO)NC(=O)[C@H](CC(C)C)NC(=O)[C@H](CCC(=O)O)NC(=O)[C@H](CO)NC(=O)[C@@H](NC(=O)[C@H](Cc1ccccc1)NC(=O)[C@@H](NC(=O)CNC(=O)[C@H](CC(=O)O)NC(=O)[C@H](CO)NC(=O)[C@@H](N)Cc1c[nH]cn1)[C@@H](C)O)[C@@H](C)O)C(=O)N[C@H](C(=O)O)C(C)C` [hSCT, human secretin, reference compound], for which the Antagonistic response result in test [1] is recorded as “Absent”. In addition, in test [2], the Agonistic response result is given as “Present”. Consider “human vasoactive peptide [hVIP, reference compound]”, for which the “agonist activity at hSR, cAMP (in words)” value in test [2] is “could also activate hSR to produce cAMP; also recorded: only at high concentrations”. For the compound “H2N-Tic-Ser-Asp-Gly-Thr-Phe-Thr-Ser-Glu-Leu-Ser-Arg-Leu-Arg-Glu-Gly-Ala-Arg-Leu-Gln-Arg-Leu-Leu-Gln-Gly-Leu-Val- COOH [Analog 9, h[Tic^1]SCT]”, the Antagonistic response result in test [1] was “Absent”. For the same compound, the Agonistic response result in test [2] was “Absent”. Turning to “H2N-Leu-Ser-Asp-Gly-Thr-Phe-Thr-Ser-Glu-Leu-Ser-Arg-Leu-Arg-Glu-Gly-Ala-Arg-Leu-Gln-Arg-Leu-Leu-Gln-Gly-Leu-Val- COOH [Analog 3, h[Leu^1]SCT]”, the Antagonistic response result in test [1] is on record as “Absent”. Further, in test [2], the Agonistic response result is reported as “Absent”.

Consider “H2N-His-Ser-Asp-Cha-Thr-Phe-Thr-Ser-Glu-Leu-Ser-Arg-Leu-Arg-Glu-Gly-Ala-Arg-Leu-Gln-Arg-Leu-Leu-Gln-Gly-Leu-Val- COOH [Analog 7, h[Cha^4]SCT]”, for which the Antagonistic response result in test [1] is on record as “Absent”. Also, the Agonistic response result in test [2] is listed as “Absent”.

As for “human pituitary adenylate cyclase-activating polypeptide [hPACAP, reference compound]”, the “in vitro binding to hSR (in words)” value in test [4] is “only at high concentrations”. For the same compound, in test [2], the “agonist activity at hSR, cAMP (in words)” value is “could also activate hSR to produce cAMP; also recorded: only at high concentrations”. “H2N-His-Ser-Asp-p-Cl,D-Phe^4-Thr-Phe-Thr-Ser-Glu-Leu-Ser-Arg-Leu-Arg-Glu-Gly-Ala-Arg-Leu-Gln-Arg-Leu-Leu-Gln-Gly-Leu-Val- COOH [Analog 4, h[(p-Cl,D-Phe^4]SCT]”: the Antagonistic response result in test [1] was “Absent”. Moreover, the Agonistic response entry in test [2] is reported as “Absent”. Consider “H2N-Phe-Thr-Ser-Glu-Leu-Ser-Arg-Leu-Arg-Glu-Gly-Ala-Arg-Leu-Gln-Arg-Leu-Leu-Gln-Gly-Leu-Val- COOH [Analog 6, hSCT(6–27)]”, for which, in test [1], the Antagonistic response result is “Absent”. For the same compound, the Agonistic response entry in test [2] is given as “Absent”. Consider “H2N-His-Ser-Asp-D-allyl,Gly-Thr-Phe-Thr-Ser-Glu-Leu-Ser-Arg-Leu-Arg-Glu-Gly-Ala-Arg-Leu-Gln-Arg-Leu-Leu-Gln-Gly-Leu-Val- COOH [Analog 5, h[(D-allyl,Gly^4]SCT]”, for which the Antagonistic response result in test [1] is on record as “Absent”. In addition, the Agonistic response result in test [2] is listed as “Absent”.

Consider “H2N-His-Val-Asp-Gly-Arg-Phe-Thr-Ser-Glu-Phe-Ser-Arg-Ala-Arg-Gly-Ser-Ala-Ala-Ile-Arg-Lys-Ile-Ile-Asn-Ser-Ala-Leu-Ala- COOH [Analog 16, Xenopus SCT]”, for which the Antagonistic response result in test [1] is recorded as “Absent”. Further, in test [2], the Agonistic response result was “Absent”. In the case of “H2N-His-Ser-D-Asp-Gly-Thr-Phe-Thr-Ser-Glu-Leu-Ser-Arg-Leu-Arg-Glu-Gly-Ala-Arg-Leu-Gln-Arg-Leu-Leu-Gln-Gly-Leu-Val- COOH [Analog 8, h[D-Asp^3]SCT]”, the Antagonistic response entry in test [1] is given as “Absent”. For the same compound, the Agonistic response entry in test [2] is on record as “Absent”. For the compound “H2N-Ala-Ser-Asp-Gly-Thr-Phe-Thr-Ser-Glu-Leu-Ser-Arg-Leu-Arg-Glu-Gly-Ala-Arg-Leu-Gln-Arg-Leu-Leu-Gln-Gly-Leu-Val- COOH [Analog 2, h[Ala^1]SCT]”, the Antagonistic response result in test [1] is “Absent”. Moreover, in test [2], the Agonistic response entry is given as “Absent”.

For the origin of these results see PMC4773067 (PLoS ONE, 2016).
